“Also recorded” adds a separate entry of the source. One block for each molecule: values may come before it.
Assays:
HER2+ tumors = details: patients with progressive disease after trastuzumab therapy; cited from earlier work
SUDHL4 DLBCL cells = experiment: Cell cycle analysis and caspase-3 activation by flow cytometry; assay type: cell-based
Protocol: To further establish the potency of a combination of a proteotoxic agent and an Hsp90 inhibitor, in vitro assays were performed on lymphoma cells treated with Doxorubicin (DOX). DOX is a topoisomerase inhibitor that intercalates into DNA to induce DNA damage and oxidative stress. The interaction of DOX and PU-H71 was evaluated using standard criteria for synergy, the median effect/Combination Index (CI) method. A dose-response matrix was used as a means to systematically test multiple ratios of DOX:PU-H71 for interaction in sequential or simultaneous schedules of exposure. […] The effect of each drug and their combination on cell cycle and apoptosis in lymphoma cells with low to medium epichaperome levels, such as the SUDHL4 DLBCL cells was evaluated (FIG. 18c).
SUDHL4 DLBCL cells were exposed to PU-H71 and DOX or combinations in different schedules as indicated. Caspase-3 activation was measured by flow cytometry using PE-conjugated anti-active Caspase-3 antibody (FIG. 18C). Cell cycle analysis was performed in parallel and is shown in the inset at top left of each scatterplot. Frequency of hypodiploid population is indicated.

[1] = system: BJAB Burkitt lymphoma cells; experiment: MTS viability assay, DOX followed by PU-H71; assay type: cell-based; details: Homo sapiens, 24 h
Protocol: BJAB Burkitt lymphoma cells were exposed to serial dilutions of DOX for 24 h prior to addition of 500 nM PU-H71. Viability was measured 24 h later using standard MTS assay. Sextuplicate data points were averaged and normalized against untreated (DOX alone) or PU-H71-treated (DOX followed by PU-H71) controls. Data is presented as mean±SD.

cancer cell lines = experiment: Cell viability by Annexin V staining in type 1 and type 2 cancer cells; assay type: cell-based; details: for apoptotic sensitivity, type 1 tumors / apoptotic sensitivity, type 2 tumors: Annexin V staining
Protocol: (FIG. 3c). Cells were treated with 1 μM PU-H71-FITC. At 4 h post treatment, cells were washed twice with FACS buffer. To measure PU-H71-FITC binding in live cells, cells were stained with 7-AAD in FACS buffer at room temperature for 10 min, and analyzed by flow cytometry (BD Biosciences). Cell viability was determined using Annexin v staining. […]

[2] = system: BT20 triple negative breast cancer cells; experiment: Incucyte kinetic growth assay; assay type: cell-based; details: for effect on cell confluency, agent alone: 2 μM paclitaxel or 5 μM PU-H71; for remaining live cells and regrowth after removal of agents: between 130 h and approximately 230 h
Protocol: MDA-MD-231 and BT20 triple negative breast cancer cells were seeded in tissue culture treated dishes. Once confluent to approximately 50% of the vessel surface area, the cells were treated with medium containing 2 μM paclitaxel, 5 μM PU-H71, vehicle (DMSO), or a combination of 2 μM paclitaxel and 5 μM PU-H71 (together or sequential). Cells were grown in these conditions in an Essen IncuCyte housed in a standard cell culture incubator. Nine images per condition were collected every 2 hours for a total of 316 hours. After 24 hours under the aforementioned treatment conditions, paclitaxel treated cells were treated with medium containing 5 μM PU-H71 or the control vehicle, PU-H71 treated cells were treated with medium containing 2 μM paclitaxel or control vehicle, and the cells treated with vehicle and the combination of PU-H71 with paclitaxel were treated with medium containing control vehicle. All secondary drug additions were added to existing medium containing the original treatment. The existing medium was additionally diluted twice more with medium containing the control vehicle; each dilution occurring 24 hours after the previous. After 96 hours in culture, the medium was aspirated from each well and replaced with cell-appropriate medium with no pharmacological agents. As stated above, cells were monitored for a total of 316 hours (i.e., […] after complete removal of pharmacological agents).

[3] = system: HSP90 in the epichaperome complex; experiment: PU-H71-beads depletion of HSP90 species from cell lysates, isoelectric focusing; assay type: binding
Source text: The supernatant was applied to native gel separation followed by immunoblotting with HSP90 and other epichaperome complex components (left, example for MDAMB468) or nanopro isoelectric focusing and immunoblotting ([…], shown for all 3 cells). Duplicates of each experimental condition are presented. Data were graphed to indicate the relative binding affinity of PU-H71 to the HSP90 species as expressed in the 3 cell types.

[4] = Safety and body weight monitoring in tumor-bearing mice; assay type: in vivo
Protocol: Pre-formulated Abraxane® (5 mg/ml) was used.
Five mice were administered the vehicle control.

[5] = system: primary acute myeloid leukemias; experiment: Ex vivo treatment of primary acute myeloid leukemia samples; assay type: cell-based
Protocol: Primary acute myeloid leukemia. Cryopreserved primary AML samples were obtained with informed consent and Weill Cornell Medical College institutional review board approval, and from the University of Pennsylvania Stem Cell & Xenograft Core Facility.
Epichaperome abundance determined by the PU-FITC flow cytometry assay. Cells were treated with 1 μM PU-H71-FITC. At 4 h post treatment, cells were washed twice with FACS buffer (PBS-0.5% FBS). To measure PU-H71-FITC binding in live cells, cells were stained with 7-AAD in FACS buffer at room temperature for 10 min, and analyzed by using an BD-LSR-II or BD-Canto cytometry (BD Biosciences). Cell viability was determined using Annexin-V staining. At 48 h post 1 μM PUH71 treatment, cells were stained with Annexin-V BD Horizon-V450 (BD Biosciences) and 7-AAD in Annexin-V buffer, and subjected to flow cytometry to measure viability determined by AnnexinV/7AAD double negative gates.

primary breast tumors = experiment: Ex vivo treatment of primary breast cancer specimens; assay type: cell-based; details: 24 h
Protocol: Primary breast cancer specimens. Patient tissue procurement was authorized through institutionally review board-approved bio-specimen protocol#09-121 at Memorial Sloan Kettering Cancer Centre (New York, N.Y.). Specimens were treated for 24 h with the indicated concentrations of PU-H71. Following treatment, slices were fixed in 4% formalin solution for 1 h then stored in 70% ethanol. For tissue analysis, slices were embedded in paraffin, sectioned, slide-mounted, and stained with haematoxylin and eosin. Tissue slides were assessed blindly by a breast cancer pathologist who gauged the apoptosis present in the tumor as well as any effect to normal tissue.
Primary breast tumor protocol. The ex vivo protocol employed on this study is depicted schematically in FIG. 4. Sample preparation and treatment are detailed in Ex vivo treatment response of primary tumors and/or associated metastases for preclinical and clinical development of therapeutics. Corben A D, Uddin M M, Crawford B, Farooq M, Modi S, Gerecitano J, Chiosis G, Alpaugh M L. J Vis Exp. 2014 Oct 2; (92):e52157.

[6] = system: triple-negative breast cancer mouse models; details: pre-clinical; cited from earlier work
epichaperome = experiment: Induction of epichaperome, native gel of HSP90 complexes in treated cancer cells; assay type: cell-based; details: cells pretreated with paclitaxel for 1 h then drug washed off
Protocol: Cells were cultured using the procedure described in Example 1. The proteotoxic stressor (e.g., paclitaxel or bortezomib) was added for 6 hours and then the cells were lysed. The homogenate was applied for separation on a gel under native conditions.
For the wash off studies (FIG. 8d), cells were cultured and then treated with paclitaxel (referred to as PAC in figure) for 1-2 hours to mimic in vivo conditions. The paclitaxel was then washed off to determine how long the epichaperome is maintained in vitro.

SMILES: CO[C@H]1/C=C\C=C(/C)C(=O)NC2=CC(=O)C(NCCN(C)C)=C(C[C@@H](C)C[C@H](OC)[C@H](O)[C@@H](C)/C=C(\C)[C@@H]1OC(N)=O)C2=O [17-DMAG]
clinical response (HER2+ tumors): elicited responses

IC50 ([1]; 500 nM PU-H71 added sequentially 24 h after DOX, viability 24 h later): 75 nM
IC50 ([1]; DOX alone, DOX 24 h, viability measured 24 h later): 400 nM
SMILES: COc1cccc2c1C(=O)c1c(O)c3c(c(O)c1C2=O)C[C@@](O)(C(=O)CO)C[C@@H]3O[C@H]1C[C@H](N)[C@H](O)[C@H](C)O1 [DOX, Doxorubicin]
effect on cell cycle (SUDHL4 DLBCL cells; 24 h exposure to doses of DOX below the IC50): loss of S-phase fraction and accumulation in G2/M

SMILES: CCNC(=O)c1noc(-c2cc(C(C)C)c(O)cc2O)c1-c1ccc(CN2CCOCC2)cc1 [NVP-AUY-922]
apoptotic sensitivity, type 1 tumors (cancer cell lines; 48 h): effectively killed
apoptotic sensitivity, type 2 tumors (cancer cell lines; 48 h): refractory

SMILES: CC(C)NCCCn1c(Sc2cc3c(cc2I)OCO3)nc2c(N)ncnc21 [PU-H71, 8-(6-Iodo-benzo[1,3]dioxol-5-ylsulfanyl)-9-(3-isopropylamino-propyl)-9H-purin-6-ylamine]
effect on cell confluency, agent alone [2]: cytotoxic effect
remaining live cells and regrowth after removal of agents [2]: a few live cells and these cells start to regrow
relative binding affinity for HSP90 species ([3]; epichaperome / stress HSP90 vs housekeeping, normal cell HSP90): higher affinity for the stress HSP90 species; also recorded: higher affinity and selectivity
amount of epichaperome in the lysates ([3]; increasing amounts of PU-H71 attached to a solid support): dose-dependent reduction
cell death (cancer cell lines; cells enriched in the epichaperome vs cells with lower levels, 1 μM, 48 h): more likely to die
sensitivity to killing (cancer cell lines; cells with AHA-1 levels reduced by siRNA, 24 h): less amenable to killing
adverse effects ([4]; Example 13: NCI-H1975, HCC1806 or MDA-MB-231 bearing mice, ip once a week, PU-H71 75 mg/kg, Abraxane 30 mg/kg): No adverse effects were observed
adverse effects ([4]; Example 14: MiaPaca2 bearing mice, Abraxane 30 mpk iv or ip 1x wk, PU-H71 75 mpk ip 1x or 2x wk, 40-day treatment): No adverse effects were observed
adverse effects ([4]; Example 15: HCC1806 bearing mice, Abraxane 30 mpk iv 1x wk, PU-H71 75 mpk ip 1x or 2x wk, 40-day treatment): No adverse effects were observed
sensitivity of non-malignant lymphocytes in the AML samples [5]: insensitive
sensitivity of type 2 tumors [5]: mostly unaffected
killing of leukemias expressing stable multimeric epichaperome forms ([5]; n=40): most effectively killed
effect on cell cycle (SUDHL4 DLBCL cells; 24 h exposure to 1 μM PU-H71): G1/S arrest
apoptosis / killing of tumors expressing stable multimeric epichaperome forms (primary breast tumors): most effectively killed; also recorded: readily underwent apoptosis
sensitivity of adjacent benign tissue (primary breast tumors): insensitive
sensitivity of tumors not enriched in the epichaperome (type 2) (primary breast tumors): mostly unaffected; also recorded: far less sensitive
single-agent anti-tumor effect [6]: most potent targeted single-agent anti-tumor effect yet reported

SMILES: CC1(C)CC(=O)c2c(C(F)(F)F)nn(-c3ccc(C(N)=O)c(N[C@H]4CC[C@H](O)CC4)c3)c2C1 [SNX2112]
apoptotic sensitivity, type 1 tumors (cancer cell lines; 48 h): effectively killed
apoptotic sensitivity, type 2 tumors (cancer cell lines; 48 h): refractory

SMILES: CC(=O)O[C@H]1C(=O)[C@@]2(C)[C@H]([C@H](OC(=O)c3ccccc3)[C@]3(O)C[C@H](OC(=O)[C@H](O)[C@@H](NC(=O)c4ccccc4)c4ccccc4)C(C)=C1C3(C)C)[C@]1(OC(C)=O)CO[C@@H]1C[C@@H]2O [paclitaxel, reference compound]
effect on cell confluency, agent alone [2]: cytotoxic effect
remaining live cells and regrowth after removal of agents [2]: a few live cells and these cells start to regrow
time of decrease of epichaperome to endogenous levels (epichaperome): ≤ 24 h
time of peak epichaperome levels (epichaperome): 5 to 7 h

— patent publication US20180280397A1, “RATIONAL COMBINATION THERAPY FOR THE TREATMENT OF CANCER” (Memorial Sloan Kettering Cancer Center, priority 2015, published 2018)
